Key:
[1] = tested on: KLF9, Hr, DBP, BHLHB5; assay: Transcription factor induction by T3 in OPCs (Affymetrix Mouse Genomic 430 2.0 chips); assay type: cell-based
Experimental: FIG. 57. KLF9, Hr, DBP, and BHLHB5 are induced in OPCs by T3. Transcription factor probe sets were induced >2-fold by T3 at early time points relative to untreated (+PDGF −T3) controls. OPCs were treated with T3 for either 1 day or 6 days in vitro with T3 (+PDGF +T3), or for only 3 hours with T3 following 1 day or 6 days in vitro in media lacking T3 (+PDGF −T3, then 3 hours +PDGF +T3). All samples were labeled and hybridized to Affymetrix Mouse Genomic 430 2.0 chips.
In OPCs cultured in saturating amounts of mitogens and T3, a small number of transcription factors are rapidly and robustly regulated in response to T3 presentation (as compared to control cultures maintained in mitogens in the absence of T3). These four genes are 1) Kruppel-Like Factor 9 (KLF9), also known as Basic Transcription Element Binding protein 1(BTEB1), 2) basic helix-loop-helix domain containing, class B5 (BHLHB5), also known as Beta3, 3) Hairless, (Hr), or ALUNC, AU, N, ba, bldy, hr, rh, rh-bmh, rhino, and 4) D site albumin promoter binding protein (DBP). KLF9, Hr, and DBP are all induced (2-6 fold) rapidly in OPCs in response to T3, before the OPCs initiate differentiation in response to T3 presentation (FIG. 57).

[2] = tested on: p57^Kip2; assay: p57^Kip2 expression in OPCs (RT-PCR, immunostaining of clones); assay type: cell-based, rat
Excerpt: p57^Kip2 was either over-expressed or reduced in levels in pure OPCs, and normal OL differentiation and OPC proliferation was observed. To test the necessity of p57^Kip2 in OL differentiation, knockdowns for p57^Kip2 were used to reduce p57^Kip2 levels in OPCs. p57^Kip2 levels were reduced by transfecting OPCs with siRNA directed against the p57^Kip2 transcript, and then cultured the transfected OPCs in media that stimulated OL differentiation. […] OPCs transfected with firefly luciferase- (cont) or p57^Kip2-targeting siRNA pools (Dharmacon) were cultured for 4 D.I.V. in −PDGF +T3 or +PDGF +T3 media and reduction in p57^Kip2 transcript levels by this method was confirmed by RT-PCR (27 cycles).
OL differentiation can be triggered by either by mitogen withdrawal or by the intrinsic timer coupled with exposure to T3 (Barres and Raff, Neuron 12:935-942 (1994)). Whereas either of these conditions will produce mature OLs, the initial genetic programs triggered by these two stimuli are not identical (Tokumoto et al., EMBO J. 20:5261-5268 (2001)). To more precisely determine how p57^Kip2 expression is induced, purified P8 OPCs were subjected to either mitogen withdrawal, T3 exposure, or both differentiation-promoting stimuli simultaneously (FIG. 48I). […]

[3] = tested on: OPCs from the cortex and cerebellum; assay: Differentiation of OPCs from the cortex and cerebellum in response to T3; assay type: cell-based, rat; details: 7 days in vitro +PDGF +T3
Experimental: OPCs were purified via immunopanning specifically from the cortices or cerebellums of P7 Sprague-Dawley rats. These cells were then plated onto glass coverslips in the presence or absence of mitogens PDGF and NT3 (±PDGF) and presence or absence of thyroid hormone (±T3) and cultured for 3 (−PDGF) or 7 (+PDGF ±T3) days in vitro, with fresh media being supplied every 2-3 days. At the end of this time, cultures were stained for either CNPase expression (less mature) or MBP expression (more mature) as markers of OL differentiation. Percentages of healthy cells (as assessed by healthy nuclei visualized by DAPI staining) expressing indicated markers were quantified for each condition. […] All experiments analyzed in triplicate, ±S.E.M.

expression of mature OL proteins (CNPase, MBP) in cerebellar vs cortical OPCs in response to T3 [3]: similarly
SMILES: N[C@@H](Cc1cc(I)c(Oc2ccc(O)c(I)c2)c(I)c1)C(=O)O [T3, triiodothyronine]
KLF9, Hr and DBP induction in OPCs in response to T3 ([1]; +PDGF +T3 vs +PDGF −T3 controls): 2-6 fold | transcription factor probe sets (KLF9, Hr, DBP, BHLHB5) induced by T3 ([1]; early time points relative to untreated (+PDGF −T3) controls): > 2 fold | KLF9 induction by T3 in OPCs ([1]; within 3 hours of T3 exposure): 4 fold | clones expressing uniformly high levels of p57^Kip2 ([2]; 7 days in +PDGF +T3 medium, clonal density): 15 out of 23 | p57^Kip2 expression by semi-quantitative RT-PCR ([2]; T3 exposure, 6 DIV, purified P8 OPCs): did not induce
